# Measurements: patent US20250115628A1, “FLUORINATED FLUOROPHORES” (HOWARD HUGHES MEDICAL INSTITUTE, priority 2023, published 2025)
# Read-outs that look alike come from different tables or passages of the source.
# Columns and labels:
# [1] = system: U2OS cells stably expressing HaloTag®-histone H2B fusion protein; assay: Loading experiments with NIR-excited HaloTag® ligands (nuclear fluorescence); type: cell-based; conditions: 200 nM; live cells expressing HaloTag®-histone H2B
# Description: U2OS cells (ATCC) and U2OS cells stably expressing an integrated HaloTag®-histone H2B fusion protein (U2OS·H2B·HaloTag®) were cultured in Dulbecco's modified Eagle medium (DMEM, phenol red-free; Life Technologies) supplemented with 10% (v/v) fetal bovine serum (FBS, Life Technologies), 1 mM GlutaMAX (Life Technologies) and maintained at 37° C. in a humidified 5% (v/v) CO2 environment. These cell lines undergo regular mycoplasma testing by the Janelia Cell Culture Facility. For mitochondrial imaging using the HaloTag® system, U2OS cells were transiently transfected using nucleofection (Lonza) with a plasmid constitutively expressing a HaloTag®-TOMM20 fusion protein, which is located on the outer mitochondrial membrane. For 4^−color imaging, U2OS·H2B·HaloTag® stable cells were transiently transfected by nucleofection with plasmids constitutively expressing a SNAP-tag®-TOMM20 fusion protein, and a GFP-SKL (SKL: serine-lysine-leucine) fusion protein, a prototypical peroxisomal matrix targeting signal. All labeled cells were imaged 18-24 h post-transfection or post-plating.
# For loading curve experiments (FIG. 15C), U2OS·H2B·HaloTag® stable cells were incubated with 200 nM HaloTag® ligand conjugated dyes (31HTL, 36HTL, 38HTL, 104HTL, 106HTL, 107HTL, and 108HTL) for 0-4 h at 37° C., washed 3× with dye-free media then fixed with 4% paraformaldehyde in 0.1 M phosphate buffer, pH 7.4 for 15 min at 37° C. Confocal imaging was performed on a Leica Stellaris with an HC PL APO 40×/1.25 glycerol objective using the tunable white light laser (WLL) to excite dyes at their λabs in constant power mode. Fluorescence was quantified as the integrated density of nuclear signals in single-plane images analyzed in FIJI;^82 n=100 nuclear signals per compound.
# [2] = Quantum yield determination; type: physicochemical; conditions: rhodamine derivatives; 10 mM HEPES, pH 7.3
# Description: All reported absolute fluorescence quantum yield values (Φf) were measured using a Quantaurus-QY spectrometer (model C11374, Hamamatsu). This instrument uses an integrating sphere to determine photons absorbed and emitted by a sample. Measurements were carried out using dilute samples (A<0.1), and self-absorption corrections were performed using the instrument software.^81
# [3] = Determination of KL-Z (lactone-zwitterion equilibrium constant); type: physicochemical; design: key: KL-Z = (εdw/εmax)/(1−εdw/εmax); εdw measured in 1:1 dioxane/water; conditions: rhodamine derivatives; 1:1 dioxane:H2O
# Description: KL-Z was calculated using the following equation:^16, 18 KL-Z=(εdw/εmax)/(1−εdw/εmax). εdw is the extinction coefficient of the dyes in a 1:1 (v/v) dioxane/water solvent mixture; this dioxane/water mixture was chosen to give the maximum spread of KL-Z values across all classes of rhodamines.^18 εmax refers to the maximal extinction coefficients measured in different solvent mixtures empirically determined depending on dye type: 0.1% v/v trifluoroacetic acid in ethanol for 18, 20, 29, 34, 36, 70-72, 81-83, 93-95, 99-102, and 104; 0.1% v/v trifluoroacetic acid in 2,2,2^−trifluoroethanol for all other rhodamine variants. A accurate determination of low KL-Z values is complicated by the relatively poor sensitivity of absorbance measurements.
# [4] = General UV-vis and fluorescence spectroscopy; type: physicochemical; conditions: rhodamine derivatives; 10 mM HEPES, pH 7.3
# Description: Spectroscopy was performed using 1^−cm path length, 3.5^−mL quartz cuvettes or 1^−cm path length, 1.4^−mL semi-micro quartz cuvettes from Starna Cells. All measurements were taken at ambient temperature (22±2° C.). Absorption spectra were recorded on a Cary Model 100 spectrometer (Agilent), and fluorescence spectra were recorded on a Cary Eclipse fluorometer (Varian). The spectra, maximum absorption wavelength (labs), extinction coefficient at λabs (8), and maximum emission wavelength (em) were measured in 10 mM HEPES, pH 7.3 buffer (rhodamines and Malachite Green derivative 49) or 0.1 M NaOH (fluoresceins); the reported values for e are averages (n=3). Normalized spectra are shown for clarity.
# [5] = system: JM8·N4 mouse embryonic stem cells stably expressing histone H2B-HaloTag® fusion proteins; assay: Single-particle tracking (SPT) experiments; type: cell-based; conditions: for performance in SPT experiments compared with 1HTL and 89HTL: HaloTag® ligands, 50 Hz imaging
# Description: SPT experiments were carried out as previously described.^84 JM8·N4 mouse embryonic stem cells (ESCs) stably expressing histone H2B-HaloTag® fusion proteins were generated by co-expressing the PiggyBac EF1a-H2B-HaloTag®-IRES-Neo vector with the super piggyBac transposase as described previously,85 followed by G418 selection (500 μg/mL) for 2 weeks and verified by FACS sorting/confocal imaging staining with JF549-HaloTag® ligand (84HTL; 100 nM, 30 min). Cells were seeded on 25 mm #1.5 coverglass pre-cleaned with KOH and ethanol and coated with iMatrix-511 (TaKaRa #T304) or rhLaminin-521 (Gibco™ #A^29248) according to the manufacturers' instruction. All live-cell imaging experiments were conducted using an ESC imaging medium composed of FluoroBrite DMEM (ThermoFisher) plus 15% v/v ESC-qualified FBS, 1× GlutaMax, 1×NEAA, 0.1 mM 2^−mercaptoethanol, and LIF. For comparison of 59HTL and 89HTL (FIG. 13E, 13F) the histone H2B-HaloTag® ESCs were stained with 5 nM 59HTL for 1 h or 0.1 nM 89HTL for 15 min at 37° C. with 5% (v/v) CO2 to achieve sparse labeling with approximately equal localizations per region of interest (ROI), and then washed with dye-free media 3× for 30 min each wash For comparison of 40HTL, 44HTL, 1HTL, or 89HTL (FIG. 12A-12G) the histone H2B-HaloTag® ESCs were stained with 1 nM of HaloTag® ligands for 15 min at 37° C. with 5% (v/v) CO2 to achieve sparse labeling, and then washed with dye-free media 3× for 30 min each wash.
# To quantify the brightness and photostability of the HaloTag® ligands, labeled cells were mounted onto a high speed motorized Nikon Eclipse Ti-E inverted microscope equipped with the following: 100× Apo TIRF 1.49 NA objective with a correction collar; four excitation laser lines (405/488/561/642 nm) and matching TIRF quad cube (405/488/561/640 nm reflection bands); automatic TIRF illuminator with motorized X axis and manual Y axis for beam positioning and focus: perfect focus 3 system; Triple DU-897 iXon Ultra EMCCD cameras on a Cairn Tri-cam emission splitter with filters 525/50 (GFP) 600/50 (RFP) and 705/72 (Cy5); humidified incubation chamber maintained at 37° C. with 5% v/v CO2 (Tokai Hit). SPT was performed at 100 Hz for the comparison of 59HTL and 89HTL (FIG. 13E, 13F) and 50 Hz for the comparison of 40HTL, 44HTL, 1HTL, or 89HTL (FIG. 12A-12G); the imaging session was performed for ˜5000 frames using 100% of maximal excitation power (˜120 mW at the fiber end before the TIRF unit). […] For the comparison of HaloTag® ligands 59HTL and 89HTL (FIG. 13E, 13F) and the comparison of compounds 40HTL, 44HTL, 1HTL, and […] (FIG. 12A-12G), the fluorophores were excited with a 647 nm laser. To minimize drift during imaging, the incubation chamber was fully thermally equilibrated, and all imaging was conducted in an isolated ultra-clean room with minimal mechanical vibrations. The microscope, laser lines, and camera integration were controlled using the Nikon NIS-Elements software. Cells with obvious movement during acquisition were removed from further analysis. SMT analysis was based on multiple target tracing 86 (MTT) with tracking parameters similar to previous work.^84 For SPT brightness (photon counts/molecule/s), intensity values from sparsely-labeled molecules were analyzed. For the comparison of HaloTag® ligands 59HTL and 89HTL (FIG. 13E, 13F): n=147,298 single-molecule events using 59HTL; n=100,392 single-molecule events using 89HTL. […]
# [6] = fluorescein derivatives; 0.1 N NaOH; data from the inventors' published work; cited from earlier work
# [7] = Hill coefficient; data from the inventors' published work; cited from earlier work
# [8] = fluorescein derivatives; 0.1 N NaOH; data from the inventors' published work; cited from earlier work; remark: listed apart in the source
Compound,cellular intensity [1],ε [6],λabs [6] [nm],λem [6] [nm],ηH [7],Φf [8],also measured
"CC1=CC(C)(C)Nc2cc3c(cc21)C(c1c(F)c(C(=O)NCCOCCOCCCCCCCl)c(F)c(F)c1C(=O)O)=c1cc2c(cc1[Si]3(C)C)=NC(C)(C)C=C2C [36HTL, 4^−((2^−(2^−((6^−Chlorohexyl)oxy)ethoxy)ethyl)carbamoyl)-2,3,5^−trifluoro-6-(2,2,4,8,10,10,13,13^−octamethyl-2,10,11,13^−tetrahydrosilino [3,2^−g:5,6^−g′]diquinolin-6^−ylium-6(1H)-yl)benzoate]",relatively low intensity,–,–,–,–,–,–
"CC1=CC(C)(C)N(C)c2cc3c(cc21)C(c1c(F)c(C(=O)NCCOCCOCCCCCCCl)c(F)c(F)c1C(=O)[O-])=c1cc2c(cc1[Si]3(C)C)=[N+](C)C(C)(C)C=C2C [38HTL, 4^−((2^−(2^−((6^−Chlorohexyl)oxy)ethoxy)ethyl)carbamoyl)-2^−(1,2,2,4,8,10,10,11,13,13-decamethyl-2,10,11,13^−tetra-hydrosilino[3,2^−g:5,6^−g′]diquinolin-6^−ylium-6(1H)-yl)-3,5,6-trifluorobenzoate]",relatively low intensity,–,–,–,–,–,–
"CC1=CC(C)(C)N(C)c2cc3c(cc21)C(c1cc(C(=O)NCCOCCOCCCCCCCl)ccc1C(=O)[O-])=c1cc2c(cc1[Si]3(C)C)=[N+](C)C(C)(C)C=C2C [104HTL, 4^−((2-(2^−((6^−Chlorohexyl)oxy)ethoxy)ethyl)carbamoyl)-2^−(1,2,2,4,8,10,10,11,13,13^−decamethyl-2,10,11,13^−tetra-hydrosilino[3,2^−g:5,6^−g′]diquinolin-6^−ylium-6(1H)-yl)benzoate]",relatively low intensity,–,–,–,–,–,–
"CN1CCc2cc3c(cc21)[Si](C)(C)c1cc2c(cc1=C3c1c(F)c(C(=O)NCCOCCOCCCCCCCl)c(F)c(F)c1C(=O)[O-])CC[N+]=2C [108HTL, SiRF712-HaloTag® ligand]",second highest cellular intensity,–,–,–,–,–,–
"[2H]C1([2H])N(c2ccc3c(c2)C(C)(C)C2=CC(=[N+]4C([2H])([2H])C([2H])([2H])C([2H])([2H])C4([2H])[2H])C=CC2=C3c2c(F)c(F)c(F)c(F)c2C(=O)[O-])C([2H])([2H])C([2H])([2H])C1([2H])[2H] [compound 40, JFX637]",–,–,–,–,–,–,"Φf [2]: 0.56; KL-Z [3]: 6.12; ε [4]: 147,000 M^−1cm^−1; λabs [4]: 637 nm; performance in SPT experiments compared with 1HTL and 89HTL [5]: comparable performance"
"CC1(C)C2=CC(=[N+]3CCC3)C=CC2=C(c2c(F)c(F)c(F)c(F)c2C(=O)[O-])c2ccc(N3CCC3)cc21 [compound 44, JF632]",–,–,–,–,–,–,"Φf [2]: 0.54; KL-Z [3]: 3.59; ε [4]: 139,000 M^−1cm^−1; λabs [4]: 632 nm; λem [4]: 649 nm; performance in SPT experiments compared with 1HTL and 89HTL [5]: comparable performance"
"CC1(C)c2cc(O)ccc2C2(OC(=O)c3ccccc32)c2ccc(O)cc21 [compound 74, carbofluorescein]",–,"108,000 M^−1cm^−1",544,567,1.65,0.62,–
C[Si]1(C)c2cc(O)ccc2C2(OC(=O)c3ccccc32)c2ccc(O)cc21 [compound 75],–,"93,000 M^−1cm^−1",579,599,1.69,0.53,–
"CC1(C)c2cc(O)c(F)cc2C2(OC(=O)c3ccccc32)c2cc(F)c(O)cc21 [compound 78, Virginia Orange]",–,"90,900 M^−1cm^−1",555,581,1.46,0.40,–
C[Si]1(C)c2cc(O)c(F)cc2C2(OC(=O)c3ccccc32)c2cc(F)c(O)cc21 [compound 79],–,"60,900 M^−1cm^−1",596,618,1.30,0.42,–
C[Si]1(C)c2cc(O)c(F)cc2C2(OC(=O)c3c(F)c(F)c(F)c(F)c32)c2cc(F)c(O)cc21 [compound 80],–,"67,900 M^−1cm^−1",617,635,1.50,0.32,–
"JFX650-HaloTag® ligand [89HTL, reference compound]",–,–,–,–,–,–,SPT localizations over time ([5]; 100 Hz imaging): relatively rapid bleaching
